Assay results: patent US20060069132A1, “Azolecarboxamide herbicides” (priority 2004, published 2006)

What was measured:
[1] = tested on: barnyardgrass; assay: Test A pre-/postemergence herbicide test; format: in vivo, Echinochloa crus-galli
Method in brief: (§1)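 Sandy loam soil given preemergence directed spray; plants at 2 to 10 cm, one- to two-leaf stage, sprayed to runoff postemergence, compounds in non-phytotoxic solvent with surfactant. Injury rated visually versus untreated controls after about ten greenhouse days, 0 (no effect) to 100 (complete control); dash means not tested.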

[2] = tested on: large crabgrass; assay: Test A pre-/postemergence herbicide test; format: in vivo, Digitaria sanguinalis
Method in brief: as §1

[3] = tested on: giant foxtail; assay: Test A pre-/postemergence herbicide test; format: in vivo, Setaria faberi
Method in brief: as §1

[4] = tested on: morningglory; assay: Test A pre-/postemergence herbicide test; format: in vivo, Ipomoea spp.
Method in brief: as §1

[5] = tested on: redroot pigweed; assay: Test A pre-/postemergence herbicide test; format: in vivo, Amaranthus retroflexus
Method in brief: as §1

[6] = tested on: velvetleaf; assay: Test A pre-/postemergence herbicide test; format: in vivo, Abutilon theophrasti
Method in brief: as §1

[7] = tested on: barnyardgrass; assay: Test B pre-/postemergence herbicide test; format: in vivo, Echinochloa crus-galli; conditions: for Barnyardgrass plant response rating: postemergence
Method in brief: (§2)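 Pre: seeds sown, then sprayed. Post: 1–4-leaf plants (2–18 cm) sprayed at the same time. Paddy: flooded, treated at 2-leaf stage. Formulation: non-phytotoxic solvent with surfactant. Greenhouse 13–15 days; visual 0–100 score relative to controls.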

[8] = tested on: Surinam grass; assay: Test B pre-/postemergence herbicide test; format: in vivo, Urochloa decumbens; conditions: for Surinam Grass plant response rating: postemergence
Method in brief: (§3)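 Formulation: non-phytotoxic solvent mix with surfactant. Timing: preemergence on seed and postemergence on 2–18 cm plants, applied concurrently. Readout after 13–15 d greenhouse: visual 0–100 control rating against controls.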

[9] = tested on: cocklebur; assay: Test B pre-/postemergence herbicide test; format: in vivo, Xanthium strumarium; conditions: for Cocklebur plant response rating: postemergence
Method in brief: as §2

[10] = tested on: corn; assay: Test B pre-/postemergence herbicide test; format: in vivo, Zea mays; conditions: for Corn plant response rating: postemergence
Method in brief: as §3

[11] = tested on: large crabgrass; assay: Test B pre-/postemergence herbicide test; format: in vivo, Digitaria sanguinalis; conditions: for Crabgrass, Large plant response rating: postemergence
Method in brief: as §3

[12] = tested on: giant foxtail; assay: Test B pre-/postemergence herbicide test; format: in vivo, Setaria faberi; conditions: for Foxtail, Giant plant response rating: postemergence
Method in brief: as §3

[13] = tested on: lambsquarters; assay: Test B pre-/postemergence herbicide test; format: in vivo, Chenopodium album; conditions: for Lambsquarters plant response rating: postemergence
Method in brief: as §3

[14] = tested on: morningglory; assay: Test B pre-/postemergence herbicide test; format: in vivo, Ipomoea coccinea; conditions: for Morningglory plant response rating: postemergence
Method in brief: as §2

[15] = tested on: pigweed; assay: Test B pre-/postemergence herbicide test; format: in vivo, Amaranthus retroflexus; conditions: for Pigweed plant response rating: postemergence
Method in brief: as §3

[16] = tested on: rice; assay: Test B pre-/postemergence herbicide test; format: in vivo, Oryza sativa; conditions: 0 = no effect, 100 = complete control, preemergence
Method in brief: as §3

[17] = tested on: velvetleaf; assay: Test B pre-/postemergence herbicide test; format: in vivo, Abutilon theophrasti; conditions: for Velvetleaf plant response rating: postemergence
Method in brief: as §3

[18] = tested on: blackgrass; assay: Test B postemergence herbicide test; format: in vivo, Alopecurus myosuroides; conditions: postemergence
Method in brief: (§4)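 Read-out: visual comparison with controls, scored 0 to 100, where 100 means complete control and 0 no effect. Formulated chemicals were applied postemergence to plants 2–18 cm tall (1- to 4-leaf), or to flooded-paddy plants at the 2-leaf stage, then held 13 to 15 days under glass.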

[19] = tested on: wheat; assay: Test B postemergence herbicide test; format: in vivo, Triticum aestivum; set-up: key to Wheat plant response rating: 0 = no effect, 100 = complete control; conditions: postemergence
Method in brief: (§5)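 Each value is a visual 0–100 response rating taken against controls 13 to 15 days after treatment in the greenhouse. Plants received formulated chemical postemergence at the 1- to 4-leaf stage or, in flooded paddy, at the 2-leaf stage.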

[20] = tested on: wild oat; assay: Test B postemergence herbicide test; format: in vivo, Avena fatua; conditions: postemergence
Method in brief: as §5

[21] = tested on: rice; assay: Test B flooded paddy test; format: in vivo, Oryza sativa; conditions: 1000 g ai/ha, scale 0 to 100 (0 no effect, 100 complete control)
Method in brief: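 Scale 0–100: zero equals no visible effect, 100 complete control, judged by eye relative to controls. Timing: 13 to 15 days in greenhouse post-treatment. Growth stage at spraying: two leaves (paddy) or one to four leaves, 2–18 cm (postemergence).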

[22] = tested on: small flower umbrella sedge; assay: Test B flooded paddy test; format: in vivo, Cyperus difformis; conditions: 1000 g ai/ha, scale 0 to 100 (0 no effect, 100 complete control)
Method in brief: as §4

[23] = tested on: ducksalad; assay: Test B flooded paddy test; format: in vivo, Heteranthera limosa; conditions: 1000 g ai/ha, scale 0 to 100 (0 no effect, 100 complete control)
Method in brief: as §4

[24] = tested on: barnyardgrass; assay: Test B flooded paddy test; format: in vivo, Echinochloa crus-galli; conditions: 1000 g ai/ha, scale 0 to 100 (0 no effect, 100 complete control)
Method in brief: as §4

[25] = Postemergence, 500 g ai/ha, 0 to 100 scale, 0 no effect, 100 complete control
[26] = Postemergence, 2000 g ai/ha, 0 to 100 scale, 0 no effect, 100 complete control
[27] = Preemergence, 2000 g ai/ha, visual rating, 0 to 100 scale (0 no effect, 100 complete control)
[28] = preemergence, 500 g ai/ha, visual injury, 0 to 100 scale (0 no effect, 100 complete control)
[29] = 125 g ai/ha, 0 = no effect, 100 = complete control, preemergence
[30] = 125 g ai/ha, visual rating, scale 0 (no effect) to 100 (complete control)
[31] = 500 g ai/ha, visual rating, 0 = no effect, 100 = complete control, preemergence
[32] = 500 g ai/ha, scale 0 to 100, 0 is no effect, 100 is complete control

CCn1nc(C(C)(C)C)cc1C(=O)Nc1cncc(C(=O)NCC(F)(F)F)n1 [Compound 291]
80: Foxtail, Giant plant response rating [12, 32]
0: Barnyardgrass plant response rating [1, 28] | Crabgrass, Large plant response rating [2, 28] | Foxtail, Giant plant response rating [3, 27] | Foxtail, Giant plant response rating [3, 28] | Morningglory plant response rating [4, 27] | Morningglory plant response rating [4, 28] | Pigweed plant response rating [5, 28] | Velvetleaf plant response rating [6, 27] | Velvetleaf plant response rating [6, 28] | Barnyardgrass plant response rating (0 to 100 scale) [7, 29] | Barnyardgrass plant response rating [7, 30] | Plant response rating, Barnyardgrass [7, 31] | Surinam Grass plant response rating (0 to 100 scale) [8, 29] | Surinam Grass plant response rating [8, 30] | Plant response rating, Surinam Grass [8, 31] | Cocklebur plant response rating (0 to 100 scale) [9, 29] | Cocklebur plant response rating [9, 30] | Plant response rating, Cocklebur [9, 31] | Corn plant response rating (0 to 100 scale) [10, 29] | Corn plant response rating [10, 30] | Plant response rating, Corn [10, 31] | Crabgrass, Large plant response rating (0 to 100 scale) [11, 29] | Crabgrass, Large plant response rating [11, 30] | Plant response rating, Crabgrass, Large [11, 31] | Foxtail, Giant plant response rating (0 to 100 scale) [12, 29] | Plant response rating, Foxtail, Giant [12, 31] | Lambsquarters plant response rating (0 to 100 scale) [13, 29] | Plant response rating, Lambsquarters [13, 31] | Morningglory plant response rating (0 to 100 scale) [14, 29] | Morningglory plant response rating [14, 30] | Plant response rating, Morningglory [14, 31] | Pigweed plant response rating (0 to 100 scale) [15, 29] | Pigweed plant response rating [15, 30] | Plant response rating, Pigweed [15, 31] | Rice plant response rating (0 to 100 scale) ([16]; 125 g ai/ha) | Plant response rating, Rice ([16]; 500 g ai/ha, visual rating) | Velvetleaf plant response rating [17, 30] | Plant response rating, Velvetleaf [17, 31] | Blackgrass plant response rating [18, 30] | Wheat plant response rating [19, 30] | Wheat plant response rating [19, 32] | Rice plant response rating [21] | Sedge, Umbrella plant response rating [22] | Ducksalad plant response rating [23] | Barnyardgrass plant response rating [24]
5: Crabgrass, Large plant response rating [2, 25] | Morningglory plant response rating [4, 25] | Velvetleaf plant response rating [6, 25]
60: Surinam Grass plant response rating [8, 32] | Corn plant response rating [10, 32] | Lambsquarters plant response rating [13, 32] | Velvetleaf plant response rating [17, 32]
75: Plant response rating, Foxtail, Giant [3, 26]
30: Foxtail, Giant plant response rating [3, 25] | Plant response rating, Pigweed [5, 26] | Barnyardgrass plant response rating [7, 32] | Crabgrass, Large plant response rating [11, 32] | Pigweed plant response rating [15, 32]
20: Pigweed plant response rating [5, 25] | Lambsquarters plant response rating [13, 30] | Oat, Wild plant response rating [20, 32]
40: Plant response rating, Barnyardgrass [1, 26] | Morningglory plant response rating [14, 32]
25: Barnyardgrass plant response rating [1, 25] | Barnyardgrass plant response rating [1, 27] | Plant response rating, Crabgrass, Large [2, 26]
10: Crabgrass, Large plant response rating [2, 27] | Plant response rating, Morningglory [4, 26] | Plant response rating, Velvetleaf [6, 26] | Cocklebur plant response rating [9, 32] | Foxtail, Giant plant response rating [12, 30] | Blackgrass plant response rating [18, 32] | Oat, Wild plant response rating [20, 30]
35: Pigweed plant response rating [5, 27]
